Patent US20150051262A1, “NMDA RECEPTOR MODULATORS AND USES THEREOF” (Northwestern University, priority 2011, published 2015)
Residues, ends and D or L forms follow the SMILES beside them.

Tests used:
[1] = tested on: long-term depression (LTD); experiment: Long-term depression (LTD) in hippocampal slices; format: cell-based; settings: 1 μM, FIG. 7
Procedure: (Note 0.001 μM represents no drug addition; Each point is mean±SEM of 8-10 slices).

[2] = tested on: floating behavior; experiment: Porsolt test procedure 1; format: in vivo, Sprague-Dawley rats
Procedure: Animals were placed in a 46 cm tall×20 cm in diameter clear glass tube filled to 30 cm with tap water at room temperature (23° C.±0.5° C.) for 5 min on the test day. All animals were towel dried after each swimming session by the experimenter. Water was changed after every other animal. Animals were videotaped and total duration (sec) of floating behavior (as defined as the minimal movement required in order to maintain the animal's head above the water) was quantified by a blind experimenter.

[3] = Metabolic stability in liver microsomes, rat; format: in vitro ADME; settings: Rat (M) microsomes
Procedure: (§1) Metabolic stability was assessed in liver microsomes as well as in hepatocytes with few compounds.
(§2) Procedure for microsomal stability: • Species: Rat and human • Test concentration: 1 μM (n=2) • Protein concentration: 0.125 mg/mL • Time points: 0, 5, 15, 30 and 60 minutes • Controls: Minus NADPH and buffer • Analysis: Parent compound monitoring LC-MS/MS (Peak area ratios)

[4] = Metabolic stability in liver microsomes, human; format: in vitro ADME; settings: Human (M) microsomes
Procedure: as §1, §2

[5] = in vitro; settings: dog, MDCK; for Papp: concentration 5 μM
Procedure: (§3) Procedure. Permeability of test compounds was assessed using MDCK (Madin-Darby Canine Kidney Cells) using the below parameters. • Test concentration: 5 μM (n=3) • Buffer: HBSS pH 7.4 • Time points: 0, 15, 30, 60 and 90 min • Analysis: Parent compound monitoring using LC-MS/MS

[6] = Bioavailability of CM-4A (plasma concentration after IV/PO dosing); format: in vivo, Sprague Dawley rats; settings: 0.1 to 10 mg/kg PO, rat plasma, FIG. 1
Procedure: Procedure. […] Data for male and female were combined for 1 mg/kg PO dosing given that no gender difference was seen. Plasma was separated by centrifugation (1,000×G for 10 min at 4° C.) and plasma samples stored at −80° C. until assay. […]. On the day of the assay, samples and spiked plasma standards were thawed at 4° C., extracted in 3 volumes of ice cold acetonitrile, centrifuged at 25,000×G for 10 min at 4° C., and the supernatant was loaded into autosampler vials (4° C.).

[7] = tested on: latency to eat; experiment: Rat novelty-induced hypophagia (NIH) test; format: in vivo, SD rats; settings: 1 mg/kg PO, 1 hr before test, FIG. 13
Procedure: The rat NIH test was conducted as follows. Animals were food deprived overnight before testing, and lab chow was placed into the center chamber of the open field. After NIH testing, the latency to eat in the animals' home cage was determined as a control. […] N=12 per group. *P<0.05.

[8] = tested on: ultrasonic vocalizations; experiment: Rat ultrasonic vocalizations (USVs) test; format: in vivo, SD rats; settings: 1 mg/kg PO, 1 hr before testing
Procedure: FIGS. 14A and 14B show the results of the rat USVs test. Positive emotional learning was measured during the conditioned stimulus (CS) trials preceding the tickle unconditioned stimulus (UCS) trials (FIG. 14A). Animals received 15 second trials consisting of 6 CS and 6 UCS trials each (3 min total). Running speed for animals to self administer tickling at the end of the 3 min session was also measured. […] N=7-8. *P<0.05.

[9] = tested on: open field behavior; experiment: Rat open field test; format: in vivo, SD rats; settings: 1 mg/kg PO, 1 hr before test, FIG. 15
[10] = tested on: fall latencies; experiment: Rat accelerating rota-rod test; format: in vivo, SD rats; settings: 10-100 mg/kg PO, 30 and 60 min post-dosing, FIG. 16
Procedure: Animals were tested immediately before dosing (0 min), 30 min post-dosing, and 60 min post-dosing using a within subjects design.

[11] = tested on: floating behavior; experiment: Porsolt test procedure 2; format: in vivo, Sprague Dawley rats
[12] = Kinetic aqueous solubility (pION method); format: physicochemical; settings: pH 7.4, conc. tested 200 μM with 1% DMSO, 16 h incubation
[13] = Metabolic stability in hepatocytes, rat; format: in vitro ADME; settings: Rat (H) hepatocytes, 10 μM
Procedure: as §1
(§4) Procedure for hepatocyte stability: • Stock preparation: DMSO • Buffer: Krebs Henseleit Buffer • Total Incubation volume: […] • Cell density: 1 million cells/mL • Test concentration: 10 μM with 0.5% DMSO (n=2) • Time points: 0 and 60 min • Analysis: LC-MS/MS

[14] = Metabolic stability in hepatocytes, human; format: in vitro ADME; settings: Human (H) hepatocytes, 10 μM
Procedure: as §1, §4

[15] = tested on: MDCK (Madin-Darby Canine Kidney Cells); experiment: in vitro; settings: concentration 5 μM
Procedure: as §3

[16] = tested on: Schaffer collateral-evoked NMDA EPSCs in CA1 pyramidal neurons; experiment: Long-term potentiation (LTP) assay procedure 2; format: cell-based, Sprague-Dawley rats; settings: 1 μM, FIG. 8, P<0.05
Procedure: Assays were conducted as described in Zhang et al. (2008). Sprague-Dawley rats (12-18 days old; Taconic Farms) were deeply anesthetized with isoflurane and decapitated. Brains was removed rapidly, submerged in ice-cold artificial cerebrospinal fluid (ACSF, 2-4° C.), which contained (in mM): 124 NaCl, 4 KCl, 2 MgSO4, 2 CaC12, 1.25 NaH2PO4, 26 NaHCO3, 10 glucose; at pH 7.4, gassed continuously with 95% O2/5% CO2). Brains were hemisected, the frontal lobes cut off, and individual hemispheres glued using cyanoacrylate adhesive onto a stage immersed in ice-cold ACSF gassed continuously with 95% O2/5% CO2 during slicing. […] Bath application of test compounds (1 μM) was applied 30 min prior to application of Schaffer collateral stimulus trains to elicit LTP. LTP was induced by stimulation of Schaffer collateral axons with four high frequency theta burst stimulus trains of 10×100 Hz/5 pulse bursts each, applied at an inter-burst interval of 200 ms. Each train was 2 s in duration, and trains were applied 15 s apart.

[17] = tested on: floating behavior; experiment: Porsolt test procedure 2; format: in vivo, Sprague Dawley rats; settings: 1 hr post-dosing
Procedure: The antidepressant-like effects of test compounds were examined with the rat Porsolt test as described in Page et al. (1999) and Burgdorf et al. (2009). Male Sprague Dawley rats (2-3 month old) were used in this study. Animals were dosed with test compounds (0.3 mg/kg IV) or sterile saline vehicle (1 ml/kg IV tail vein) 1 hr before a single test session. […] Water was changed after every other animal. […] CM-6A, CM-7A, CM-8A, and CM-9A were tested in the Porsolt test. CM-5A was not tested in the Porsolt test.
Animals received a single 15 min Porsolt habituation session on the day before the first 5 min Porsolt test. N=6 per group. *P<0.05 Fisher's PLSD post hoc test vs. vehicle.

C[C@@H](O)[C@H](N)C(=O)N1CCC[C@H]1C(=O)N1CCC[C@H]1C(=O)N[C@H](C(N)=O)[C@@H](C)O [GLYX-13, reference compound] (H-TPPT-NH2)
magnitude of LTD [1]: significantly reduced the magnitude of LTD

NS(=O)(=O)c1cccc2c1c([N+](=O)[O-])cc1[nH]c(=O)c(=O)[nH]c12 [NBQX, 2,3-dihydroxy-6-nitro-7-sulfamoyl-benzo[f]quinoxaline-2,3-dione, reference compound]
floating time in the rat Porsolt test, NBQX pretreatment ([2]; NBQX 10 mg/kg IP 10 min before CM-4A 1 mg/kg PO, FIG. 10): blocks the antidepressant-like effect of CM-4A

C[C@@H](O)[C@H](N)C(=O)N1CCC[C@H]1C(=O)N1CCC[C@@]1(Cc1ccccc1)C(=O)N[C@H](C(N)=O)[C@@H](C)O [CM-4A, (R)-N-((2S,3R)-1-amino-3-hydroxy-1-oxobutan-2-yl)-1-((S)-1-((2S,3R)-2-amino-3-hydroxybutanoyl)pyrrolidine-2-carbonyl)-2-benzylpyrrolidine-2-carboxamide]
% Remaining at 60 minutes ([3]; 1 μM): 68%
Stability Class ([3]; 1 μM): Unstable (% Remaining <70%)
half-life at 1 μM ([3]; liver microsomes): > 1 h
% Remaining at 60 minutes ([4]; 1 μM): 72%
Stability Class ([4]; 1 μM): Moderate (% Remaining 70-90%)
half-life at 1 μM ([4]; liver microsomes): > 1 h
recovery at 5 μM ([5]; pH 7.4): 100%
Papp ([5]; pH 7.4, Papp (10^−6 cm/sec), HBSS pH 7.4): 0.15 ×10⁻⁶ cm/s
Papp ([5]; pH 7.4, Permeability classification): < 3 ×10⁻⁶ cm/s
oral bioavailability (dose linearity) [6]: essentially linear
magnitude of LTD [1]: significantly reduced the magnitude of LTD
floating time in the rat Porsolt test (dose response) ([2]; 0.1 to 10 mg/kg PO, FIG. 9): dose- and time-dependent antidepressant effect
latency to eat in the NIH test [7]: produces an antidepressant/anxiolytic-like effect
positive emotional learning ([8]; FIG. 14A): increases positive emotional learning
aversive 20-kHz USVs ([8]; FIG. 14B): decreases aversive 20-kHz USVs
center compartment crosses and time (anxiolytic-like effect) [9]: produces an anxiolytic-like effect
locomotor behavior (line crosses) [9]: without effecting locomotor behavior
fall latencies (sedative/ataxia like effect) [10]: does not produce a sedative/ataxia like effect
floating time in the rat Porsolt test ([11]; positive control, 1 mg/kg PO, 1 hr and 24 hrs post dosing, FIG. 12): robust Antidepressant-like effects

C[C@@H](O)[C@H](N)C(=O)N1CCC[C@H]1C(=O)N1CCC[C@@]1(Cc1ccc(F)cc1)C(=O)N[C@H](C(N)=O)[C@@H](C)O [CM-6A, (R)-N-((2S,3R)-1-amino-3-hydroxy-1-oxobutan-2-yl)-1-((S)-1-((2S,3R)-2-amino-3-hydroxybutanoyl)pyrrolidine-2-carbonyl)-2-(4-fluorobenzyl) pyrrolidine-2-carboxamide]
Mean Solubility (N = 3) at pH [12]: >200
% Remaining at 60 minutes ([3]; 1 μM): 100%
Half-life ([3]; 1 μM): >1 h
Stability Class ([3]; 1 μM): Stable (% Remaining >90%)
% Remaining at 60 minutes ([4]; 1 μM): 88%
Half-life ([4]; 1 μM): >1 h
Stability Class ([4]; 1 μM): Moderate (% Remaining 70-90%)
% Remaining at 60 minutes [13]: 87%
Half-life [13]: >1 h
Stability Class [13]: Moderate (% Remaining 70-90%)
% Remaining at 60 minutes [14]: 98%
Half-life [14]: >1 h
Stability Class [14]: Stable (% Remaining >90%)
Permeability classification [15]: Low (≦3 × 10^−6 cm/sec)
Recovery [15]: 100
long-term potentiation after high frequency stimulation (fEPSP slope) [16]: increased long-term potentiation
floating time in the Porsolt test ([17]; single dose 0.3 mg/kg IV, FIG. 11A): produced an antidepressant-like effect
floating time in the Porsolt test ([17]; single dose (0.3 mg/kg IV), FIG. 11B): produced an antidepressant-like effect
floating time in the Porsolt test ([11]; single dose (0.3 mg/kg IV), 24 hrs post-dosing, FIG. 11C): produced an antidepressant-like effect
